For data set [1], the system named is MCF7. Kind of data set: Cell cycle arrest in human MCF7 cells assessed as accumulation at G1 phase at 10 uM measured after 48 hrs by propidium iodide staining based flow cytometry (reference value: 52.44%). Type of data set: functional.
Data set [2] relates to MCF7. Description: Cell cycle arrest in human MCF7 cells assessed as accumulation at S phase at 2.5 uM measured after 48 hrs by propidium iodide staining based flow cytometry (reference value: 24.31%). Type of data set: functional.
Data set [3] relates to MCF7. Kind of data set: Cell cycle arrest in human MCF7 cells assessed as accumulation at G2 phase at 2.5 uM measured after 48 hrs by propidium iodide staining based flow cytometry (reference value: 23.25%). Type of data set: functional.
For data set [4], the system named is MCF7. Description: Potency index, ratio of artemisinin IC50 to test compound IC50 for human MCF7 cells. The data set is classed as functional.
The test system of data set [5] is MCF7. Description: Cell cycle arrest in human MCF7 cells assessed as accumulation at G1 phase at 5 uM measured after 48 hrs by propidium iodide staining based flow cytometry (reference value: 52.44%). Type of data set: functional.
Data set [6] relates to MCF7. Description: Cell cycle arrest in human MCF7 cells assessed as accumulation at S phase at 10 uM measured after 48 hrs by propidium iodide staining based flow cytometry (reference value: 24.31%). Type of data set: functional.
The next data set concerns NCI/ADR-RES. Description: Potentiation of adriamycin-induced antiproliferative activity against human MCF7/ADR cells assessed as fold reduction in adriamycin IC50 at 5 uM measured after 48 hrs by MTT assay. The data set is classed as functional.
In a further data set the test system is A549. Kind of data set: Antiproliferative activity against human A549 cells measured after 48 hrs by MTT assay. The data set is classed as functional, cell-based. The note with it: A549, 48 h.
In a further data set the test system is MDA-MB-231. Kind of data set: Antiproliferative activity against human MDA-MB-231 cells measured after 48 hrs by MTT assay. The data set is classed as functional, cell-based. The note with it: MDA-MB-231, 48 h.
Data set [7] is described as follows: Toxicity in human MCF7 cells assessed as inhibition of cell proliferation at 5 uM measured after 48 hrs by MTT assay. Type of data set: cell-based.
The test system of the next data set is HepG2. Description: Antiproliferative activity against human HepG2 cells measured after 48 hrs by MTT assay. Type of data set: functional, cell-based. The note with it: HepG2, 48 h.
The test system of data set [8] is MCF7. Kind of data set: Cell cycle arrest in human MCF7 cells assessed as accumulation at G2 phase at 10 uM measured after 48 hrs by propidium iodide staining based flow cytometry (reference value: 23.25%). Type of data set: functional.
Data set [9] deals with MCF7. Description: Cell cycle arrest in human MCF7 cells assessed as accumulation at G2 phase at 5 uM measured after 48 hrs by propidium iodide staining based flow cytometry (reference value: 23.25%). Type of data set: functional.
Data set [10] has as its system MCF7. Kind of data set: Cell cycle arrest in human MCF7 cells assessed as accumulation at G1 phase at 2.5 uM measured after 48 hrs by propidium iodide staining based flow cytometry (reference value: 52.44%). The data set is classed as functional.
In data set [11] the test system is MCF7. Kind of data set: Cell cycle arrest in human MCF7 cells assessed as accumulation at S phase at 5 uM measured after 48 hrs by propidium iodide staining based flow cytometry (reference value: 24.31%). The data set is classed as functional.
Data set [12] concerns MCF7. Kind of data set: Antiproliferative activity against human MCF7 cells measured after 48 hrs by MTT assay. Type of data set: functional, cell-based. The note with it: MCF7, 48 h.
The subject of another data set is L02. Description: Cytotoxicity against human L02 cells measured after 48 hrs by MTT assay. The data set is classed as cell-based. The note with it: L02, 48 h.
The next data set concerns CCRF-CEM. Description: Cytotoxicity against human CCRF-CEM cells by XTT assay. The data set is classed as functional, cell-based.
The next data set deals with ADR5000 cell line. Kind of data set: Cytotoxicity against human CEM/ADR5000 cells by XTT assay. The data set is classed as functional, cell-based.

Bounds are passed on as bounds.

We go through two compounds from ChEMBL document CHEMBL4316608, “Artemisinin-indole and artemisinin-imidazole hybrids: Synthesis, cytotoxic evaluation and reversal effects on multidrug resistance in MCF-7/ADR cells” (Bioorg Med Chem Lett, 2019).

With `C[C@@H]1CC[C@H]2[C@@H](C)C(OC(=O)c3c[nH]c4ccc(Cl)cc34)O[C@@H]3O[C@@]4(C)CC[C@@H]1[C@]32OO4` (some centres undefined), the Activity in the data set on MCF7 [1] came out at 39.61%; in the data set with MCF7 [2], 24.24%; with MCF7 [3], 27.4%; with MCF7 [5], 43.76%; in the data set on MCF7 [6] it was 21.41%; in the data set on MCF7 [8], 38.97%. The Activity turned out to be 34.35% with MCF7 [9], 48.36% in the data set with MCF7 [10] and 21.89% in the data set on MCF7 [11]. In addition, the “Ratio IC50” value in the data set on MCF7 [4] stood at 10. In addition, the “fold change (FC)” value in the data set on NCI/ADR-RES is given as 117. Also, the 50% inhibitory concentration (IC50) in the data set on A549 was 6.17 µM; with MDA-MB-231 it was > 100 µM; with HepG2, 10.8 µM; with MCF7 [12], 5.25 µM; in the data set on L02 it was 31 µM. The inhibition at 48 h, 5 µM in [7] came to 32.1%.

On to `C[C@H]1[C@@H](O)O[C@@H]2O[C@@]3(C)CC[C@H]4[C@H](C)CC[C@@H]1[C@@]24OO3` [ARTENIMOL], for which the 50% inhibitory concentration (IC50) in the data set on CCRF-CEM came out at 0.87 µM; in the data set on A549, 45.3 µM; with ADR5000 cell line, 1.84 µM; in the data set on MDA-MB-231, 58.7 µM; in the data set on HepG2, 31.7 µM; in the data set on MCF7 [12], 34.3 µM. The half-maximal inhibitory concentration (IC50) in the data set on L02 is 40.2 µM.
